Test results as given in patent US7166611B2, “Pharmaceutical compositions having appetite suppressant activity” (priority 1997, dated 2007).

Legend:
Assay type in all cases: in vivo, rat
male Wistar rats [1] = experiment: Example 44 single oral dose study: food consumption
Description: (§1) Sample 1 to 3 were each administered as a single oral dose to male Wistar rats. Two additional control groups received vehicle (distilled water or DMSO). Orally administered fenfluramine (7.5 mg/kg) was included as a reference standard.
(§2) Fifty-five male Wistar rats were used for the study.
(§3) Bodyweights, food consumption (food hopper weight) and water consumption (bottle weight) were recorded daily at the same time each day from the day of arrival until the termination of the study.
(§4) On Day 1, the rats received a single oral (gavage) dose according to the following table:
(§5) Groups 1–8 were dosed using a constant dose volume of 10 ml/kg and groups 9–12 were dosed using a dose volume of 1 ml/kg.
(§6) Food and water consumption were also measured at […] after dosing on Day 1.
(§7) The post-dose food and water consumption measurements and bodyweights at each time-point for the P57-treated animals were compared with those for the relevant, similarly-treated vehicle control group using analysis of variance followed by Williams' test for comparisons with controls.
(§8) The data for the fenfluramine-treated animals was compared with that for the vehicle-treated control group using Student's t test.

[2] = Example 44 single oral dose study: bodyweight
Description: as §1, §2, §3, §4, §5, §7, §8

male Wistar rats [3] = experiment: Example 44 single oral dose study: liver histopathology
From the text: Following the measurements of Day 8, the animals were killed by carbon dioxide asphyxiation, and the livers excised and placed in 10% buffered formalin, prior to histology.
Paraffin wax sections of each liver were taken at 4–5 μm and stained with haematoxylin and eosin. Additional sections were cut on a cryostat at 12 μm and stained for fat with Oil Red O (ORO).
Histological examination was restricted to the liver.

male Wistar rats [4] = experiment: Example 44 single oral dose study: water consumption
Description: as §1, §2, §3, §4, §5, §6, §7, §8

[5] = pre-dose data, before treatment, table rows = later dose groups
[6] = 7.5 mg/kg single oral dose on Day 1
[7] = Group 11, 7.5 mg/kg, 3 examined

CCNC(C)Cc1cccc(C(F)(F)F)c1 (centres unmarked) [Fenfluramine, reference compound]
Group mean food consumption (g ± sd) between Days: 1–2 (male Wistar rats [1]; 7.5 mg/kg single oral dose): 22.4 ± 3.19 g | Group mean food consumption (g ± sd) between Days: 2–3 (male Wistar rats [1]; 7.5 mg/kg single oral dose): 31.9 ± 0.84 g | Group mean food consumption (g ± sd) between Days: 3–4 (male Wistar rats [1]; 7.5 mg/kg single oral dose): 32.7 ± 2.50 g | Group mean food consumption (g ± sd) between Days: 4–5 (male Wistar rats [1]; 7.5 mg/kg single oral dose): 33.0 ± 2.55 g | Group mean food consumption (g ± sd) between Days: 5–6 (male Wistar rats [1]; 7.5 mg/kg single oral dose): 30.4 ± 0.23 g | Group mean food consumption (g ± sd) between Days: 6–7 (male Wistar rats [1]; 7.5 mg/kg single oral dose): 32.7 ± 1.90 g | Group mean food consumption (g ± sd) between Days: 7–8 (male Wistar rats [1]; 7.5 mg/kg single oral dose): 32.4 ± 1.60 g | food consumption at 6 and 24 hours post-dose versus vehicle-treated control group (male Wistar rats [1]; 7.5 mg/kg single oral dose): statistically significant reductions in food consumption | Group mean food consumption (g ± sd) between Days: −2–−1 (male Wistar rats [1]; [5]): 29.7 ± 2.84 g | Group mean food consumption (g ± sd) between Days: −3–−2 (male Wistar rats [1]; [5]): 30.8 ± 0.54 g | Group mean food consumption (g ± sd) between Days: −4–−3 (male Wistar rats [1]; [5]): 27.0 ± 1.53 g | Group mean food consumption (g ± sd) between Days: −5–−4 (male Wistar rats [1]; [5]): 25.3 ± 4.03 g | Group mean food consumption (g ± sd) between Days: −6–−5 (male Wistar rats [1]; [5]): 29.1 ± 0.66 g | effects on bodyweight ([2]; 7.5 mg/kg single oral dose): No statistically significant effects | Group mean bodyweight (g ± sd) on Day: 2 [2, 6]: 190.3 ± 10.97 g | Group mean bodyweight (g ± sd) on Day: 3 [2, 6]: 197.7 ± 7.37 g | Group mean bodyweight (g ± sd) on Day: 4 [2, 6]: 207.7 ± 7.23 g | Group mean bodyweight (g ± sd) on Day: 5 [2, 6]: 217.7 ± 10.69 g | Group mean bodyweight (g ± sd) on Day: 6 [2, 6]: 224.3 ± 10.12 g | Group mean bodyweight (g ± sd) on Day: 7 [2, 6]: 234.3 ± 12.70 g | Group mean bodyweight (g ± sd) on Day: 8 [2, 6]: 243.3 ± 9.24 g | Group mean bodyweight (g ± sd) on Day: Pre-dose (1) ([2]; Day 1 before dosing): 190.3 ± 9.71 g | Group mean bodyweight (g ± sd) on Day: −1 [2, 5]: 182.8 ± 10.21 g | Group mean bodyweight (g ± sd) on Day: −2 [2, 5]: 170.0 ± 9.15 g | Group mean bodyweight (g ± sd) on Day: −3 [2, 5]: 160.0 ± 9.82 g | Group mean bodyweight (g ± sd) on Day: −4 [2, 5]: 152.7 ± 9.09 g | Group mean bodyweight (g ± sd) on Day: −5 [2, 5]: 133.2 ± 9.21 g | Liver (ORO stain): Hepatocyte fat - centrilobular(Total) (male Wistar rats [3]; [7]): 1 | Liver (ORO stain): Hepatocyte fat - centrilobular, Minimal (male Wistar rats [3]; [7]): 1 | Liver (ORO stain): No abnormalities detected (male Wistar rats [3]; [7]): 2 | Liver: Hepatocyte necrosis - focal (Total) (male Wistar rats [3]; [7]): 0 | Liver: Hepatocyte necrosis - focal, Minimal (male Wistar rats [3]; [7]): 0 | Liver: No abnormalities detected (incidence) (male Wistar rats [3]; [7]): 0 | Liver: Parenchymal inflammatory cell foci (Total) (male Wistar rats [3]; [7]): 0 | Liver: Parenchymal inflammatory cell foci, Minimal (male Wistar rats [3]; [7]): 0 | Liver: Portal leucocytes (Total) (male Wistar rats [3]; [7]): 0 | Liver: Portal leucocytes, Minimal (male Wistar rats [3]; [7]): 0 | Liver: Portal lymphoid infiltration (Total) (male Wistar rats [3]; [7]): 3 | Liver: Portal lymphoid infiltration, Minimal (male Wistar rats [3]; [7]): 3 | histological examination of the liver (male Wistar rats [3]; all doses tested, single oral dose, livers taken Day 8): No treatment-related changes were detected | Group mean water consumption (g ± sd) between Days: 1–2 (male Wistar rats [4]; 7.5 mg/kg single oral dose): 34.1 ± 3.60 g | Group mean water consumption (g ± sd) between Days: 2–3 (male Wistar rats [4]; 7.5 mg/kg single oral dose): 37.2 ± 1.48 g | Group mean water consumption (g ± sd) between Days: 3–4 (male Wistar rats [4]; 7.5 mg/kg single oral dose): 36.7 ± 3.92 g | Group mean water consumption (g ± sd) between Days: 4–5 (male Wistar rats [4]; 7.5 mg/kg single oral dose): 33.8 ± 2.89 g | Group mean water consumption (g ± sd) between Days: 5–6 (male Wistar rats [4]; 7.5 mg/kg single oral dose): 33.7 ± 5.43 g | Group mean water consumption (g ± sd) between Days: 6–7 (male Wistar rats [4]; 7.5 mg/kg single oral dose): 32.1 ± 1.93 g | Group mean water consumption (g ± sd) between Days: 7–8 (male Wistar rats [4]; 7.5 mg/kg single oral dose): 33.6 ± 2.50 g | effects on water consumption (male Wistar rats [4]; 7.5 mg/kg single oral dose): No statistically significant effects | Group mean water consumption (g ± sd) between Days: −2–−1 (male Wistar rats [4]; [5]): 31.6 ± 2.80 g | Group mean water consumption (g ± sd) between Days: −3–−2 (male Wistar rats [4]; [5]): 30.9 ± 2.12 g | Group mean water consumption (g ± sd) between Days: −4–−3 (male Wistar rats [4]; [5]): 34.7 ± 3.73 g | Group mean water consumption (g ± sd) between Days: −5–−4 (male Wistar rats [4]; [5]): 35.5 ± 7.49 g | Group mean water consumption (g ± sd) between Days: −6–−5 (male Wistar rats [4]; [5]): 47.0 ± 5.3 g
